Experimental data published in US12370232B2, “Use of polyphenol containing sugar cane extracts for preventing, improving or treating a skin condition” (priority 2017, dated 2025).
Values joined by “and” are separate entries in the source; they are usually repeats but may differ in a detail not shown here. Identical values can stand only once. Like-named read-outs stand apart in the source and are kept apart here. Blank lines part the entries; values can stand above or below the compound they belong to. Where a SMILES comes first, the peptide text is derived from it. The star is where a group is joined. MeOSuc = COC(=O)CCC(=O)*; CH2Cl = ClC*

Experiments:
[1] = tested on: collagenase; experiment: Collagenase inhibition assay; format: biochemical
Experimental: A collagenase inhibition assay was performed to determine the collagenase inhibition of an extract derived from sugar cane of the present disclosure. Two batches (replicate 1 and replicate 2) of an extract derived from sugar cane of the present disclosure in a concentration of from 0.17 mg/mL to 350 mg/mL were tested for the ability to inhibit collagenase.
To measure collagenase inhibition potential of an extract derived from sugar cane of the present disclosure, a test sample of an extract derived from sugar cane was mixed sequentially with type-I collagen substrate and a diluted collagenase enzyme solution. After incubation for 30 minutes at 37° C., fluorescence was measured at excitation maxima of 495 nm and emission maxima of 515 nm. The inhibition percentage was calculated as follows.
[formula] Wherein, • Abssample=absorbance of the sample test, • Absblank=absorbance of the sample blank, • Abspositive control=absorbance of the positive control, and • Absnegative control=absorbance of the negative control.
1,10-phenanthroline was used as a positive assay control. Two batches (replicate 1 and replicate 2) of 1,10-phenanthroline in a concentration of from 1.7 μM to 3500 μM were used in the positive control assay. A negative control was performed with a buffer and a collagen substrate but without collagenase enzyme.

[2] = target: T1, telomerase (Homo sapiens, UniProt O14746); experiment: Cellular telomerase activity assay (TRAP); format: cell-based; set-up: Telomerase activity Replicate 1 / Telomerase activity Replicate 2 / Telomerase activity Average: unit not given here
T1 construct: endogenous in cells
T1 sequence (O14746 whole entry): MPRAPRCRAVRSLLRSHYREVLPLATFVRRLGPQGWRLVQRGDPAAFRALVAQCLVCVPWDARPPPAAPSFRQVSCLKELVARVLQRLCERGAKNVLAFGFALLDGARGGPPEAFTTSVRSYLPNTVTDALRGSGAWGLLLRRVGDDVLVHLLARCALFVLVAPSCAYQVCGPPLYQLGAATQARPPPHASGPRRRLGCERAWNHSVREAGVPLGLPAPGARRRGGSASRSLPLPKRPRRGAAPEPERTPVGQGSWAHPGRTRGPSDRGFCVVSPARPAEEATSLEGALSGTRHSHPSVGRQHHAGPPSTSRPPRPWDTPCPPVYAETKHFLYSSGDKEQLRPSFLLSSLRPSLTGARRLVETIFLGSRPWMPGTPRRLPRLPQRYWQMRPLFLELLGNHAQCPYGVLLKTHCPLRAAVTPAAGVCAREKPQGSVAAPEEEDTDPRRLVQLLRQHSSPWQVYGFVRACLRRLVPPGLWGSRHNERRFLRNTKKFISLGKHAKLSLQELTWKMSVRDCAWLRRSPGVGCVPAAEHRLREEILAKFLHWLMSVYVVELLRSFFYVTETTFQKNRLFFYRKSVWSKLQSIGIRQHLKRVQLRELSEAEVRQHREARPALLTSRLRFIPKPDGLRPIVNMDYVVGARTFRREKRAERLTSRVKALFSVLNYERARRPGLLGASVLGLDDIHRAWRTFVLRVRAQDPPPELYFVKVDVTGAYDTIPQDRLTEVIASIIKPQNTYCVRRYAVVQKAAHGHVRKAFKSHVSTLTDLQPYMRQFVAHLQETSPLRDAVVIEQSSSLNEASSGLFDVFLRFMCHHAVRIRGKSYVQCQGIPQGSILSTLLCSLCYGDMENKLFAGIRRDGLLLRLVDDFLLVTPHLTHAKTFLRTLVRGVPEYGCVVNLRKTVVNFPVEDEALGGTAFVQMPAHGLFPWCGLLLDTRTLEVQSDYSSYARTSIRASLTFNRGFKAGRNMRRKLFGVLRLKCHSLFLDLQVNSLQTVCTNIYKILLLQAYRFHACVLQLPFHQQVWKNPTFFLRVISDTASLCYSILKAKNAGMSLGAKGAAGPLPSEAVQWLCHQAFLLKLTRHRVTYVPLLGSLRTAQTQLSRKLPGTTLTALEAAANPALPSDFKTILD
Excerpt: A cellular telomerase activity assay determines the ability of a test material to stimulate telomerase activity in human cells, which translates to the material's anti-aging potential. […]
In the cellular telomerase activity assay, telomerase activity level of human cells treated with (and without) a test sample of an extract derived from sugar cane of the present disclosure was monitored. Specifically, a telomeric repeat amplification protocol (TRAP assay) was used for the assay. The TRAP assay was divided into three main steps: extension, amplification, and detection of telomerase products. In the extension phase, telomeric sequences were added to the telomerase substrate, a non-telomeric oligonucleotide, through the action of telomerase present in the cell extract. The products of the extension step were amplified by PCR using specific primers and finally were analyzed via electrophoresis.
Cycloastragenol, a known telomerase activator, was used as an assay control. Two batches (replicate 1 and replicate 2) of cycloastragenol in a concentration from 0.06 μM to 3 μM were used in the control assay.

[3] = target: T2, elastase (Homo sapiens, UniProt P08246); experiment: Elastase inhibition assay; format: biochemical
T2 sequence (P08246 30-247): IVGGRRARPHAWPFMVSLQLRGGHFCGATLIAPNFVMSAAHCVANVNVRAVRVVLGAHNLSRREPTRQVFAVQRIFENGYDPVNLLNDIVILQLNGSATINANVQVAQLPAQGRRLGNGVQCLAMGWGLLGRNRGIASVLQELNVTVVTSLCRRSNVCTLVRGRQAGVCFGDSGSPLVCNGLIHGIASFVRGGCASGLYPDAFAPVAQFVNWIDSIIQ
Experimental: An elastase inhibition assay was performed to determine the elastase inhibition potential of an extract derived from sugar cane of the present disclosure. […] To measure elastase inhibitory potential of an extract derived from sugar cane of the present disclosure, a test sample of an extract derived from sugar cane was mixed and incubated with N-methoxysuccinyl-[…]-chloromethyl ketone in tris-HCl buffer for 15 min. Then elastase was added to the mixture and incubated for 15 min. […] [formula] Wherein, • Abssample+elastase=absorbance of test sample after incubation with elastase, • Abssample-elastase=absorbance of test sample before incubation with elastase, • Absblank+elastase=absorbance of blank after incubation with elastase, and • Absblank-elastase=absorbance of blank before incubation with elastase. N-methoxysuccinyl-[…]-chloromethyl ketone, a human leukocyte elastase (HLE) inhibitor, was used as an assay control.

[4] = tested on: melanin production in human skin cells; experiment: Cellular melanin pigmentation inhibition assay; format: cell-based; settings: for EC50 / inhibition at 10 µM / inhibition at 0.31 µM / inhibition at 0.63 µM / inhibition at 1.25 µM / inhibition at 2.5 µM / inhibition at 5 µM: Homo sapiens
Experimental: A melanin production inhibition assay was performed to determine the potential of an extract derived from sugar cane of the present disclosure to inhibit melanin production.
To measure melanin pigmentation inhibition potential of an extract derived from sugar cane of the present disclosure, a test sample of an extract derived from sugar cane, in combination with theophylline, was added to a pre-incubated human skin cell culture. After incubating for 72 hours, the cells were washed with phosphate-buffered saline (PBS), lysed in 1 M NaOH, and boiled for 5 minutes to solubilize the melanin. The inhibition rates of the lysates were measured at 490 nm and expressed as a percentage relative to the value of the untreated control.
Chloroquine, a known melanin production inhibitor, was used as an assay control. Two batches (replicate 1 and replicate 2) of chloroquine in a concentration from 0.31 μM to 10 μM were used in the control assay.

[5] = read-out: Inhibition (%) Average
[6] = read-out: Inhibition (%) Relicate 1
[7] = read-out: Inhibition (%) Replicate 2
[8] = read-out: Melanin inhibition (%) Average
[9] = read-out: Melanin inhibition (%) Replicate 1
[10] = read-out: Melanin inhibition (%) Replicate 2

Compound: c1cnc2c(c1)ccc1cccnc12 [1,10-phenanthroline]
Concentration inducing the maximum inhibition (collagenase) [1]: 3.50 mM | Inhibition (%) Average ([1]; 1.71 uM): −29.05% | Inhibition (%) Relicate 1 ([1]; 1.71 uM): −29.63% | Inhibition (%) Replicate 2 ([1]; 1.71 uM): −28.47% | Inhibition (%) Average ([1]; 3.42 uM): −25.76% | Inhibition (%) Relicate 1 ([1]; 3.42 uM): −27.08% | Inhibition (%) Replicate 2 ([1]; 3.42 uM): −24.45% | Inhibition (%) Average ([1]; 6.84 uM): −21.65% | Inhibition (%) Relicate 1 ([1]; 6.84 uM): −22.85% | Inhibition (%) Replicate 2 ([1]; 6.84 uM): −20.46% | Inhibition (%) Average ([1]; 13.67 uM): −6.70% | Inhibition (%) Relicate 1 ([1]; 13.67 uM): −7.40% | Inhibition (%) Replicate 2 ([1]; 13.67 uM): −6.00% | Inhibition (%) Average ([1]; 27.34 uM): 24.95% | Inhibition (%) Relicate 1 ([1]; 27.34 uM): 25.64% | Inhibition (%) Replicate 2 ([1]; 27.34 uM): 24.25% | Inhibition (%) Average ([1]; 54.69 uM): 58.50% | Inhibition (%) Relicate 1 ([1]; 54.69 uM): 57.26% | Inhibition (%) Replicate 2 ([1]; 54.69 uM): 59.74% | Inhibition (%) Average ([1]; 109.38 uM): 71.66% | Inhibition (%) Relicate 1 ([1]; 109.38 uM): 71.77% | Inhibition (%) Replicate 2 ([1]; 109.38 uM): 71.54% | Inhibition (%) Average ([1]; 218.75 uM): 75.46% | Inhibition (%) Relicate 1 ([1]; 218.75 uM): 75.14% | Inhibition (%) Replicate 2 ([1]; 218.75 uM): 75.78% | Inhibition (%) Average ([1]; 437.50 uM): 77.01% | Inhibition (%) Relicate 1 ([1]; 437.50 uM): 76.63% | Inhibition (%) Replicate 2 ([1]; 437.50 uM): 77.39% | Inhibition (%) Average ([1]; 875.00 uM): 77.37% | Inhibition (%) Relicate 1 ([1]; 875.00 uM): 77.01% | Inhibition (%) Replicate 2 ([1]; 875.00 uM): 77.72% | Inhibition (%) Average ([1]; 1750.00 uM): 77.27% | Inhibition (%) Relicate 1 ([1]; 1750.00 uM): 76.83% | Inhibition (%) Replicate 2 ([1]; 1750.00 uM): 77.71% | Inhibition (%) Average ([1]; 3500.00 uM): 78.99% | Inhibition (%) Relicate 1 ([1]; 3500.00 uM): 79.75% | Inhibition (%) Replicate 2 ([1]; 3500.00 uM): 78.24% | Maximum inhibition achieved (collagenase) ([1]; at 3.50 mM): 78.99% | EC50 ([1]; effective concentration at 50% of maximal inhibition): 26.9 µM | EC50 (collagenase inhibition) ([1]; same value in mass units): (4.84 μg/mL)

Compound: CC(C)(O)[C@@H]1CC[C@](C)([C@H]2[C@@H](O)C[C@@]3(C)[C@@H]4C[C@H](O)[C@H]5C(C)(C)[C@@H](O)CC[C@@]56C[C@@]46CC[C@]23C)O1 [Cycloastragenol]
Telomerase activity Average ([2]; 0.06 μM): 1387.33 | Telomerase activity Replicate 1 ([2]; 0.06 μM): 925.83 | Telomerase activity Replicate 2 ([2]; 0.06 μM): 1848.83 | Telomerase activity Average ([2]; 0.13 μM): 1916.83 | Telomerase activity Replicate 1 ([2]; 0.13 μM): 2080.83 | Telomerase activity Replicate 2 ([2]; 0.13 μM): 1752.83 | Telomerase activity Average ([2]; 0.25 μM): 5523.83 | Telomerase activity Replicate 1 ([2]; 0.25 μM): 5415.83 | Telomerase activity Replicate 2 ([2]; 0.25 μM): 5631.83 | Telomerase activity Average ([2]; 0.50 μM): 7501.33 | Telomerase activity Replicate 1 ([2]; 0.50 μM): 7834.83 | Telomerase activity Replicate 2 ([2]; 0.50 μM): 7167.83 | Telomerase activity Average ([2]; 1.00 μM): 15556.33 | Telomerase activity Replicate 1 ([2]; 1.00 μM): 15590.83 | Telomerase activity Replicate 2 ([2]; 1.00 μM): 15521.83 | Telomerase activity Average ([2]; 3.00 μM): 21909.33 | Telomerase activity Replicate 1 ([2]; 3.00 μM): 20995.83 | Telomerase activity Replicate 2 ([2]; 3.00 μM): 22822.83 | EC50 ([2]; half-maximal telomerase activation, human cells): 0.79 µM | EC50 (telomerase activation) ([2]; same value in mass units): (0.39 μg/mL

Compound: COC(=O)CCC(=O)NC(C)C(=O)NC(C)C(=O)N1CCCC1C(=O)NC(C(=O)CCl)C(C)C (stereo not drawn) [N-methoxysuccinyl-Ala-Ala-Pro-Val-chloromethyl ketone] (MeOSuc-AAPV-CH2Cl; configuration not given here)
Concentration inducing the maximum inhibition (elastase) [3]: 250 µM | inhibition at 250 µM ([3]; Conc. 250.00 uM, read-out: Inhibition (%) Average): 87.7% | inhibition at 250 µM ([3]; Conc. 250.00 uM, read-out: Inhibition (%) Relicate 1): 87.6% | inhibition at 250 µM ([3]; Conc. 250.00 uM, read-out: Inhibition (%) Replicate 2): 87.8% | inhibition at 0.12 µM [3, 5]: 10.3% | inhibition at 0.24 µM [3, 5]: 18.2% | inhibition at 0.49 µM [3, 5]: 30.3% | inhibition at 0.98 µM [3, 5]: 45.7% | inhibition at 1.95 µM [3, 5]: 59.2% | inhibition at 3.91 µM [3, 5]: 68.7% | inhibition at 7.81 µM [3, 5]: 76.3% | inhibition at 15.63 µM [3, 5]: 81% | inhibition at 31.25 µM [3, 5]: 84.4% | inhibition at 62.5 µM [3, 5]: 86.1% | inhibition at 125 µM [3, 5]: 87.2% | inhibition at 0.12 µM [3, 6]: 10.1% | inhibition at 0.24 µM [3, 6]: 18.3% | inhibition at 0.49 µM [3, 6]: 29.9% | inhibition at 0.98 µM [3, 6]: 45.3% | inhibition at 1.95 µM [3, 6]: 58.8% | inhibition at 3.91 µM [3, 6]: 68.5% | inhibition at 7.81 µM [3, 6]: 76.2% | inhibition at 15.63 µM [3, 6]: 81.1% | inhibition at 31.25 µM [3, 6]: 84.3% | inhibition at 62.5 µM [3, 6]: 86% | inhibition at 125 µM [3, 6]: 87.1% | inhibition at 0.12 µM [3, 7]: 10.5% | inhibition at 0.24 µM [3, 7]: 18.2% | inhibition at 0.49 µM [3, 7]: 30.6% | inhibition at 0.98 µM [3, 7]: 46.1% | inhibition at 1.95 µM [3, 7]: 59.6% | inhibition at 3.91 µM [3, 7]: 69% | inhibition at 7.81 µM [3, 7]: 76.3% | inhibition at 15.63 µM [3, 7]: 80.8% | inhibition at 31.25 µM [3, 7]: 84.5% | inhibition at 62.5 µM [3, 7]: 86.2% | inhibition at 125 µM [3, 7]: 87.3% | inhibition at 250 µM ([3]; read-out: Maximum inhibition achieved (elastase)): 87.7%

EC50 [4]: 0.74 µg/mL and 1.43 µM | EC50 ([4]; 72 h, read-out: EC50 (melanin production inhibition)): 1.43 µM
Compound: CCN(CC)CCCC(C)Nc1ccnc2cc(Cl)ccc12 (stereo not drawn) [chloroquine, Chloroquine]
Concentration inducing the maximum inhibition [4]: 10 µM | inhibition at 10 µM ([4]; read-out: Maximum inhibition achieved): 88.1% | inhibition at 0.31 µM [4, 8]: 0.92% | inhibition at 0.63 µM [4, 8]: 16.1% | inhibition at 1.25 µM [4, 8]: 34.3% | inhibition at 2.5 µM [4, 8]: 76.1% | inhibition at 5 µM [4, 8]: 83.1% | inhibition at 10 µM [4, 8]: 88.1% | inhibition at 0.31 µM [4, 9]: 1.77% | inhibition at 0.63 µM [4, 9]: 15.5% | inhibition at 1.25 µM [4, 9]: 36.5% | inhibition at 2.5 µM [4, 9]: 76.6% | inhibition at 5 µM [4, 9]: 79.8% | inhibition at 10 µM [4, 9]: 85.7% | inhibition at 0.31 µM [4, 10]: 0.06% | inhibition at 0.63 µM [4, 10]: 16.7% | inhibition at 1.25 µM [4, 10]: 32.1% | inhibition at 2.5 µM [4, 10]: 75.6% | inhibition at 5 µM [4, 10]: 86.4% | inhibition at 10 µM [4, 10]: 90.5%
